Consider five molecules from US10954567B2, “Mutations associated with resistance to inhibitors of Bruton's Tyrosine Kinase (BTK)” (Pharmacyclics LLC, priority 2012, dated 2021).

Molecules are shown by their SMILES. Read-outs that look alike come from different tables or passages of the source.

One experiment relates to CLL cells. Put plainly: In vitro stroma-induced CLL proliferation model (BrdU incorporation). Type of experiment: cell-based, human. To be noted: BTK-mutated (C481S) CLL cells, FIG. 3C, untreated 31%. A general note: Dividing cells build labelled thymidine or BrdU into new DNA.
The test system of another experiment is CML. To be noted: cited from earlier work.

The molecule `CC[C@H](Nc1ncnc2[nH]cnc12)c1nc2cccc(F)c2c(=O)n1-c1ccccc1` [GS-1101] registered a proliferation in the experiment on CLL cells of 14%. With `Cc1cccc(Nc2nc(N[C@@H]3CCCC[C@@H]3N)ncc2C(N)=O)c1` [PRT060318], the “proliferation (in words)” value in the experiment on CLL cells was “complete inhibition of proliferation”. Still for that read-out and setting: the value for `CCS(=O)(=O)N1CCN(c2ccc(Nc3ncc(C(N)=O)c(NC4CC4)n3)cc2)CC1` [PRT062070] was “complete inhibition of proliferation”. On to `Cc1ccc(NC(=O)c2ccc(CN3CCN(C)CC3)cc2)cc1Nc1nccc(-c2cccnc2)n1` [imatinib], for which the patients who relapse in the experiment with CML (advanced CML) is recorded as 66%; with CML (chronic CML, within the first few years) it was 5%. In the experiment with CLL cells, `C[C@@H]1CCN(C(=O)CC#N)C[C@@H]1N(C)c1ncnc2[nH]ccc12` [tofacitinib] had a proliferation of 21%.
